Experimental data published in patent publication US9968583B2, “Method of manufacture of liposome composition” (EISAI R & D MANAGEMENT CO., LTD., priority 2009, dated 2018).
Counter-ions that a name gives are not always drawn. Like-named read-outs stand apart in the source and are kept apart here.

Legend:
[1] = Body weight of WiDr cancer-bearing nude mice (Embodiment 10); format: in vivo; details: average body weight; 2.5 mg/kg single dose; 5 days after administration
Procedure: (§1) WiDr (obtained from Dainippon Sumitomo Pharma Co., Ltd.), which is a human colon cancer cell line, was cultured and grown in a 10% bovine fetal serum-containing RPMI1640 culture. The cells were separated from the flask using 0.05% Trypsin-EDTA solution and collected. After washing with PBS, the cells were suspended in Hank's Balanced Salt Solution (manufactured by GIBCO) so as to be 5×10^7 cells/mL and kept on ice. 100 μL of cell suspension liquid was subcutaneously injected in the right ventral portion of 6- to 8-week old nude mice (CLEA Japan, Inc.). Each mouse was observed daily, and notes were made appropriately in cases where abnormal conditions were found. Calipers were used to measure the tumor size over time, and the tumor size was calculated based on the calculation formula: major axis×(minor axis squared)÷2. Moreover, the mouse body weight was also measured over time. At the point when the tumor size was 100 to 200 mm^3, the mice were separated into groups such that the average values of the tumor sizes and the mouse body weights were uniform among the test groups (five mice per test group). […]
(§2) The tumor-growth suppression effect and the body weight loss 5 days after administration were statistically analyzed by a parametric method. […]

[2] = system: WiDr, human colon cancer cell line; assay: Therapeutic effect of E7107 on tumor growth in WiDr cancer-bearing nude mice (Embodiment 10); format: in vivo; details: 2.5 mg/kg single dose into caudal vein; 5 days after administration
Procedure: as §1, §2

[3] = Measurement of the entrapment ratio (ultracentrifugation, HPLC of active compound in the filtrate); format: physicochemical; details: E7107, internal phase 250 mM HP-β-cyclodextrin/100 mM citric acid (pH=5.5)
Procedure: The entrapment ratio was determined as described below.
The entrapment ratio was calculated using the formula below.

[4] = system: ACHN, human renal cancer cell line; assay: Antitumor activity of eribulin mesylate in ACHN cancer-bearing nude mice (Embodiment 15, FIG. 8); format: in vivo; details: free body 2 mg/kg, 3 mg/kg and 4 mg/kg, 3 times in 7-day intervals, 45 days after the start of administration
Procedure: ACHN (obtained from the American Type Culture Collection), which is a human renal cancer cell line, was cultured and grown in a 10% bovine fetal serum-containing MEM culture. The cells were separated from the flask using 0.05% Trypsin-EDTA solution and collected. After washing with PBS, the cells were suspended in PBS so as to be 5×10^7 cells/mL and then kept on ice. 0.1 mL of cell suspension liquid was subcutaneously injected in the right ventral portion of 6-week old nude mice (Charles River Laboratories Japan, Inc.). Each mouse was observed daily, and notes were made appropriately in cases where abnormal conditions were found. Calipers were used to measure the tumor size over time, and the tumor size was calculated based on the calculation formula: major axis×(minor axis squared)÷2. At the point when the tumor size was 150 to 200 mm^3, the mice were separated into groups such that the average values of the tumor sizes and the mouse body weights were uniform among the test groups (five mice per test group), and the drug was administered into the caudal vein (0.2 mL/20 g; 3 times in 7-day intervals).

[5] = Eribulin mesylate blood plasma and tumor tissue PK in LOX cancer-bearing mice (Embodiment 11); format: in vivo; details: female, NU/NU nude, mouse, iv
Procedure: A blood sample was taken and tumor tissue extraction was carried out with a cardiac puncture at fixed periods after administration (15 minutes, 30 minutes, 1, 2, 4, 8, 12, 24, 36, and 48 hours) (n=3). The blood was sampled in a test tube containing heparin, and within 30 minutes of the sampling, the blood was separated by centrifuging at 1,500×g for 10 minutes at 4° C. to obtain the blood plasma. All of the tumor tissue was extracted, washed with PBS, and wiped with water-absorbent paper, and then the tissue weight was immediately weighed. The tissue was placed in a test tube and cooled in ice water, and then stored at −80° C. until analysis was carried out.
The PK parameters were calculated using non-compartment model analysis software (WinNonlin version 5.0.1).

[6] = Maximum tolerance dose of eribulin mesylate free bodies; format: in vivo; details: free body of eribulin mesylate, caudal vein, nude mice
[7] = system: WiDr, human colon cancer cell line; assay: Antitumor activity of eribulin mesylate in WiDr cancer-bearing nude mice (Embodiment 12, FIG. 5); format: in vivo; details: 2 mg/kg; caudal vein, 2 times in 7-day intervals; five mice per group
Procedure: WiDr, which is a human colon cancer cell line, was cultured and grown in a 10% bovine fetal serum-containing RPMI1640 culture. The cells were separated from the flask using 0.05% Trypsin-EDTA solution and collected. After washing with PBS, the cells were suspended in Hank's Balanced Salt Solution (manufactured by Gibco BRL Co. Ltd.) so as to be 5×10^7 cells/mL and kept on ice. 0.1 mL of cell suspension liquid were subcutaneously injected in the right ventral portion of 7-week old nude mice (Charles River Laboratories Japan, Inc.). Each mouse was observed daily, and notes were made appropriately in cases where abnormal conditions were found. Calipers were used to measure the tumor size over time, and the tumor size was calculated based on the calculation formula: major axis×(minor axis squared)÷2. At the point when the tumor size was 100 to 200 mm^3, the mice were separated into groups such that the average values of the tumor sizes and the mouse body weights were uniform among the test groups (five mice per test group), and the drug was administered into the caudal vein (0.2 mL/20 g; 2 times in 7-day intervals).

[8] = system: FaDu, human pharyngeal squamous cell carcinoma line; assay: Antitumor activity of eribulin mesylate in FaDu cancer-bearing nude mice (Embodiment 13, FIG. 6); format: in vivo; details: 4.0 mg/kg free bodies, caudal vein, 3 times in 7-day intervals
Procedure: FaDu (obtained from the American Type Culture Collection), which is a human pharyngeal squamous cell carcinoma line, was cultured and grown in a 10% bovine fetal serum-containing MEM culture. The cells were separated from the flask using 0.05% Trypsin-EDTA solution and collected. After washing with PBS, the cells were suspended in PBS so as to be 5×10^7 cells/mL and then kept on ice. 0.1 mL of cell suspension liquid were subcutaneously injected in the right ventral portion of 6-week old nude mice (Charles River Laboratories Japan, Inc.). Each mouse was observed daily, and notes made appropriately in cases where abnormal conditions were found. Calipers were used to measure the tumor size over time, and the tumor size was calculated based on the calculation formula: major axis×(minor axis squared)÷2. At the point when the tumor size was 100 to 200 mm^3, the mice were separated into groups such that the average values of the tumor sizes and the body weights of mice were uniform among the test groups (five mice per test group), and the drug was administered into the caudal vein (0.2 mL/20 g; 3 times in 7-day intervals).

[9] = system: FaDu, human pharyngeal squamous cell carcinoma line; assay: Antitumor activity of eribulin mesylate in FaDu cancer-bearing nude mice (Embodiment 14, FIG. 7); format: in vivo; details: 4.0 mg/kg free bodies, caudal vein, 3 times in 7-day intervals
Procedure: FaDu (obtained from the American Type Culture Collection), which is a human pharyngeal squamous cell carcinoma line, was cultured and grown in a 10% bovine fetal serum-containing MEM culture. The cells were separated from the flask using 0.05% Trypsin-EDTA solution and collected. After washing with PBS, the cells were suspended in PBS so as to be 5×10^7 cells/mL and kept on ice. 0.1 mL of cell suspension liquid was subcutaneously injected in the right ventral portion of 6-week old nude mice (Charles River Laboratories Japan, Inc.). Each mouse was observed daily, and notes were made appropriately in cases where abnormal conditions were found. Calipers were used to measure the tumor size over time, and the tumor size was calculated based on the calculation formula: major axis×(minor axis squared)÷2. At the point when the tumor size was 100 to 200 mm^3, the mice were separated into groups such that the average values of the tumor sizes and the mouse body weights were uniform among the test groups (five mice per test group), and the drug was administered into the caudal vein (0.2 mL/20 g; 3 times in 7-day intervals).

[10] = complex with HP-β-cyclodextrin, Non-patent Literature 6, cited from earlier work
[11] = blood plasma, 1.0 mg/kg into caudal vein, LOX cancer-bearing mice
[12] = tumor tissue, 1.0 mg/kg into caudal vein, LOX cancer-bearing mice

With `CCC(O)C(C)C1OC1CC(C)(O)/C=C/C=C(\C)C1OC(=O)CC(O)CCC(C)(O)C(OC(=O)N2CCN(C3CCCCCC3)CC2)/C=C/C1C` (stereo not drawn) [E7107, (8E,12E,14E)-7-{(4-cycloheptylpiperazin-1-yl)carbonyl}oxy-3,6,16,21-tetrahydroxy-6,10,12,16,20-pentamethyl-18,19-epoxytricosa-8,12,14-trien-11-olide] the “Body weight” value [1] was 20.32 g, the “Tumor (mm^3)” value [2] was 204.34 mm^3 and the “Entrapment ratio (%)” value ([3]; 5° C., 5 minutes) was 0%. For the same molecule, the “Entrapment ratio (%)” value ([3]; 5° C., 1 hour) was 0%, the “Entrapment ratio (%)” value ([3]; 5° C., 6 hours) was 0% and the “Entrapment ratio (%)” value ([3]; 20° C., 1 minute) was 0%. The “Entrapment ratio (%)” value ([3]; 20° C., 5 minutes) was 0%, the “Entrapment ratio (%)” value ([3]; 20° C., 1 hour) was 13.1% and the “Entrapment ratio (%)” value ([3]; 20° C., 6 hours) was 49.6%. The “Entrapment ratio (%)” value ([3]; 40° C., 1 minute) was 4.1%, the “Entrapment ratio (%)” value ([3]; 40° C., 5 minutes) was 87.5% and the “Entrapment ratio (%)” value ([3]; 50° C., 1 minute) was 56.8%. The “Entrapment ratio (%)” value ([3]; 60° C., 1 minute) was 99.2%.

For `C=C1C[C@@H]2CC[C@@]34C[C@H]5O[C@H]6[C@@H](O3)[C@H]3O[C@H](CC[C@@H]3O[C@H]6[C@H]5O4)CC(=O)C[C@@H]3[C@@H](OC)[C@@H](C[C@H](O)CN)O[C@H]3C[C@H]3O[C@@H](CC[C@@H]1O2)C[C@@H](C)C3=C` [eribulin mesylate], the “Tumor volume versus the untreated group” value [4] was “no significant difference”, the MRT [5, 11] was 3.3 h and the clearance [5, 11] was 40.3 mL/min/kg. The half-life [5, 11] was 3.7 h, the Vd ([5]; blood plasma, 1.0 mg/kg into caudal vein, LOX cancer-bearing mice, read-out: Vss) was 8.03 L/kg and the AUC(0-inf) [5, 12] was 6290 ng·h/mL. The AUC(0-t) [5, 12] was 4650 ng·h/mL, the Cmax [5, 12] was 323 ng/g and the MRT [5, 12] was 27.7 h. The Tmax [5, 12] was 0.25 h, the half-life [5, 12] was 17.8 h and the AUC(0-inf) ([5]; plasma, 1 mg/kg) was 365 ng·h/mL. The AUC(0-t) ([5]; plasma, 1 mg/kg) was 363 ng·h/mL, the Maximum tolerance dose [6] was 4 mg/kg and the Maximum tolerance dose ([6]; listed as free bodies) was 4.0 mg/kg. For the same molecule, the “Complete disappearance of the tumor / mice completely healed” value [7] was 2 out of 5, the Tumor-reducing effect [8] was “tumor-reducing effect was not obtained” and the Tumor-reducing effect [9] was “tumor-reducing effect was not obtained”.

In the case of `CC(C(=O)O)c1cccc(C(=O)c2ccccc2)c1` (stereo not drawn) [ketoprofen], the Entrapment ratio ([10]; MLVs (multilamellar vesicles)) is given as “approximately 75%” and the Entrapment ratio ([10]; SUVs (small unilamellar vesicles)) is given as “approximately 55%”.
